Experimental data taken from patent publication US10414763B2 (CANCER RESEARCH TECHNOLOGY LIMITED, priority 2014, dated 2019).

Target: T1, full-length human PKCι (Homo sapiens, UniProt P41743)
T1 construct: Recombinant, full-length human PKCι expressed in Sf21 insect cells is also commercially available; purchased EMD Millipore; host or cells: Sf21 insect cells (baculovirus)
T1 sequence (P41743 1-596): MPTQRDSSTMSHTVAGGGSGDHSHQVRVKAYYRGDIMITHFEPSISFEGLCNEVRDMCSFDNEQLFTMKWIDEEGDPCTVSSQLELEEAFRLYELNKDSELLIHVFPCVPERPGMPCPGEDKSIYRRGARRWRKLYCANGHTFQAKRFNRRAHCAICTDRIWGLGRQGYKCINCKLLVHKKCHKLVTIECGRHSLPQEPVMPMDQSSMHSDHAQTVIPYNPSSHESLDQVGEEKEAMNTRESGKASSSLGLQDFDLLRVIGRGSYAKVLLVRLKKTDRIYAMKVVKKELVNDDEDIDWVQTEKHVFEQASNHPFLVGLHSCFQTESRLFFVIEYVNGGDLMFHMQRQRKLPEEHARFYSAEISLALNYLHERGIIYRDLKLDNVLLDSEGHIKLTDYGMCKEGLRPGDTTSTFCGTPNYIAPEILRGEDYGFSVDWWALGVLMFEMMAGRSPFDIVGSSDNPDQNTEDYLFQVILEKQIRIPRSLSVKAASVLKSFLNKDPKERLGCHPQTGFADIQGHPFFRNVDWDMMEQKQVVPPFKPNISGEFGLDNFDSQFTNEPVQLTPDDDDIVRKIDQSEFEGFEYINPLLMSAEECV
Test: PKCι IC50 IMAP fluorescence polarisation assay, full-length enzyme, 150 μM ATP
Type: biochemical
Conditions: read-out: IC50 in IMAP assay against full length PKCi at 150 μM ATP
Excerpt: Assays are based on the ability of PKCι to phosphorylate a commercially available peptide substrate in vitro. The peptide substrate is FAM-PKCε pseudopeptide derived peptide, and comprises the amino acid sequence 5FAM-ERMRPRKRQGSVRRRV-NH2. Recombinant, full-length human PKCι expressed in Sf21 insect cells is also commercially available. Recombinant, kinase-domain human PKCι is expressed and purified in-house.
The procedure below explains how dose response curves for inhibitors of PKCι are obtained. The screen described is for a 384 well format but the assay can be adapted to 1536 or other formats as required.
Compounds to be tested are dissolved in 100% DMSO. Compounds are diluted as required to give a final concentration of 4% DMSO (v/v) in the assay. 1 μl is plated into 384 well black low-binding flat bottomed assay plates which are used immediately. Dilutions and additions of compound to assay plates are carried out using Matrix WellMate® and Matrix PlateMate® Plus liquid handling systems.
On the day of the screen PKCι/substrate working solution, and ATP working solution, are prepared in buffer containing 20 mM tris-HCl pH7.5, 10 mM MgCl2, 0.01% Triton X100, 250 μM EGTA and 1 mM DTT. The final concentration of PKCι used varies depending on the batch of protein but is typically 15 pM. The final concentration of peptide substrate in the assay is 100 nM. ATP is used at a final concentration of 150 μM or 25 μM in the assays containing full-length or kinase-domain PKCι respectively, which corresponds to five times or equal to the KM^APP for ATP for each enzyme, respectively. The final buffer concentration in the assay is 18 mM tris-HCl pH7.5, 9 mM MgCl2, 0.009% Triton X100, 225 μM EGTA and 0.9 mM DTT. Relevant controls are included, namely no compound and no enzyme. 5 μl PKCι/substrate working solution at 30 pM and 200 nM, respectively, is added to the wells, followed by 4 μl ATP working solution at 375 μM or 62.5 μM for full-length or kinase-domain PKCι respectively, using a 16 channel Matrix pipette. The reaction is allowed to incubate for 60 minutes at room temperature, before the reaction is stopped and developed by the addition of 20 μl IMAP™ development reagent (Molecular Devices). IMAP development reagent consists of 0.25% (v/v) IMAP progressive binding reagent, 17% (v/v) IMAP progressive binding buffer A and 3% (v/v) IMAP progressive binding buffer B. The plates are then incubated for 2 hours at room temperature before being read using an appropriate plate reader, for example a Molecular Devices HT Analyst or a BMG Pherastar. Plates are read using a fluorescence polarisation protocol with excitation at 485 nm and emission at 530 nm, and dichroic mirror at 505 nm.
Percentage inhibition values are calculated from fluorescence polarisation values, using the no compound and no enzyme control values as 0% and 100% inhibition, respectively. IC50 determination is performed with ExcelFit software (IDBS) using curve fit 205. Z′ factors are determined for each plate tested and are all above 0.5.
Alternatively, compounds were tested for their ability to inhibit the kinase activity of recombinant human baculovirus-expressed PKCiota using the immobilized metal-ion affinity particle (IMAP®) fluorescence polarization detection system (Molecular Devices, Sunnyvale, Calif.). PKCiota/IMAP® substrate mixture (2×) was prepared in 1×IMAP assay buffer (Molecular Devices) containing 1 mM DTT so that the final assay concentrations were 15 pM PKCiota (EMD Millipore, Billerica, Mass.) and 100 nM 5-fluorescein-amidite (FAM)-PKC ? -pseudosubstrate (5-FAM-ERMRPRKRQGSVRRRV-NH2) (Molecular Devices). The 2× working solution was added at 5 μL/well into a 384-well black, non-binding, flat bottom assay plate (Corning, Corning, N.Y.). […]

IC50	Structure (SMILES)
< 100 nM	O[C@]12CCN(c3nc(-c4ccnc5[nH]c6ccccc6c45)nc4cncc(C5CC5)c34)[C@H]1CCNC2 (racemic) [Example 113, (±)-(3aS,7aS)-1-[5-Cyclopropyl-2-(9H-pyrido[2,3-b]indol-4-yl)-pyrido[3,4-d]pyrimidin-4-yl]-octahydro-pyrrolo [3,2-c]pyridin-3a-ol]
< 100 nM	Cc1cc2c(-c3nc(N4CC[C@]5(O)CNCC[C@H]45)c4c(C5CCC5)cncc4n3)ccnc2[nH]1 (racemic) [Example 117, (±)-(3aS,7aS)-1-[5-Cyclobutyl-2-(2-methyl-1H-pyrrolo[2,3-b]pyridin-4-yl)-pyrido[3,4-d]pyrimidin-4-yl]-octahydro-pyrrolo [3,2-c]pyridin-3a-ol]
< 100 nM	O[C@]12CCN(c3nc(-c4ccnc5[nH]c(-c6ccccc6Cl)cc45)nc4cncc(C5CC5)c34)[C@H]1CCNC2 (racemic) [Example 143, (±)-(3aS,7aS)-1-{2-[2-(2-Chloro-phenyl)-1H-pyrrolo[2,3-b]pyridin-4-yl]-5-cyclopropyl-pyrido[3,4-d]pyrimidin-4-yl}-octahydro-pyrrolo [3,2-c]pyridin-3a-ol]
< 100 nM	O[C@]12CCN(c3nc(-c4ccnc(Nc5nc6ccccn6n5)c4)nc4cncc(C5CC5)c34)[C@H]1CCNC2 (racemic) [Example 151, (±)-(3aS,7aS)-1-{5-Cyclopropyl-2-[2-([1,2,4]triazolo[1,5-a]pyridin-2-ylamino)-pyridin-4-yl]-pyrido[3,4-d]pyrimidin-4-yl}-octahydro-pyrrolo [3,2-c]pyridin-3a-ol]
100 to 1000 nM	N[C@H]1C[C@H](Nc2nc(-c3ccnc4[nH]c5ccccc5c34)nc3cncc(C4CCC4)c23)C[C@H]1F (racemic) [Example 207, (±)-(1S,3S,4S)-N*l*-[5-Cyclobutyl-2-(9H-pyrido[2,3-b]indol-4-yl)-pyrido[3,4-d]pyrimidin-4-yl]-4-fluoro-cyclopentane-1,3-diamine]
< 100 nM	C[C@@H]1CNCC[C@H]1Nc1nc(-c2ccnc(Nc3nc(F)ccc3F)c2)nc2cncc(C3CC3)c12 (racemic) [Example 223, (±)-{5-Cyclopropyl-2-[2-(3,6-difluoro-pyridin-2-ylamino)-pyridin-4-yl]-pyrido[3,4-d]pyrimidin-4-yl}-((3,4-trans)-3-methyl-piperidin-4-yl)-amine]
< 100 nM	C[C@@H]1CNCC[C@@H]1Nc1nc(-c2ccnc(Nc3nc(F)ccc3F)c2)nc2cncc(C3CC3)c12 (racemic) [Example 224, (±)-{5-Cyclopropyl-2-[2-(3,6-difluoro-pyridin-2-ylamino)-pyridin-4-yl]-pyrido[3,4-d]pyrimidin-4-yl}-((3,4-cis)-3-methyl-piperidin-4-yl)-amine]
< 100 nM	C[C@H]1C[C@@H](Nc2nc(-c3ccnc(Nc4nc(F)ccc4F)c3)nc3cncc(C4CC4)c23)CCN1 (racemic) [Example 225, (±)-{5-Cyclopropyl-2-[2-(3,6-difluoro-pyridin-2-ylamino)-pyridin-4-yl]-pyrido[3,4-d]pyrimidin-4-yl}-((2,4-cis)-2-methyl-piperidin-4-yl)-amine]
100 to 1000 nM	C[C@@H]1C[C@@H](Nc2nc(-c3ccnc(Nc4nc(F)ccc4F)c3)nc3cncc(C4CC4)c23)CCN1 (racemic) [Example 226, (±)-{5-Cyclopropyl-2-[2-(3,6-difluoro-pyridin-2-ylamino)-pyridin-4-yl]-pyrido[3,4-d]pyrimidin-4-yl}-((2,4-trans)-2-methyl-piperidin-4-yl)-amine]
< 100 nM	OC1CNCCC(Nc2nc(-c3ccnc4[nH]c5ccccc5c34)nc3cncc(C4CCC4)c23)C1 (racemic) [Example 230, Cis- or trans-(±)-5-[5-Cyclobutyl-2-(9H-pyrido[2,3-b]indol-4-yl)-pyrido[3,4-d]pyrimidin-4-ylamino]-azepan-3-ol]
< 100 nM	OC1CNCCC(Nc2nc(-c3ccnc4[nH]c5ccccc5c34)nc3cncc(C4CCC4)c23)C1 (racemic) [Example 231, Trans- or cis-(±)-5-[5-Cyclobutyl-2-(9H-pyrido[2,3-b]indol-4-yl)-pyrido[3,4-d]pyrimidin-4-ylamino]-azepan-3-ol]
< 100 nM	CC1(C)CNCCC1Nc1nc(-c2ccnc(Nc3ncn(-c4ccccc4)n3)c2)nc2cncc(C3CC3)c12 (racemic) [Example 233, rac-{5-Cyclopropyl-2-[2-(1-phenyl-1H-1,2,4-triazol-3-ylamino)-pyridin-4-yl]-pyrido[3,4-d]pyrimidin-4-yl}-(3,3-dimethyl-piperidin-4-yl)-amine]
< 100 nM	CN(c1nc(-c2ccnc(Nc3ncn(-c4ccccc4)n3)c2)nc2cncc(C3CC3)c12)C1CCNCC1(C)C (racemic) [Example 234, rac-{5-Cyclopropyl-2-[2-(1-phenyl-1H-1,2,4-triazol-3-ylamino)-pyridin-4-yl]-pyrido[3,4-d]pyrimidin-4-yl}-(3,3-dimethyl-piperidin-4-yl)-methyl-amine]
< 100 nM	CC1(C)CNCCC1Nc1nc(-c2ccnc(Nc3ncn(Cc4ccccc4)n3)c2)nc2cncc(C3CC3)c12 (racemic) [Example 237, rac-{2-[2-(1-Benzyl-1H-1,2,4-triazol-3-ylamino)-pyridin-4-yl]-5-cyclopropyl-pyrido[3,4-d]pyrimidin-4-yl}-(3,3-dimethyl-piperidin-4-yl)-amine]
< 100 nM	CN(c1nc(-c2ccnc(Nc3ncn(Cc4ccccc4)n3)c2)nc2cncc(C3CC3)c12)C1CCNCC1(C)C (racemic) [Example 238, rac-{2-[2-(1-Benzyl-1H-1,2,4-triazol-3-ylamino)-pyridin-4-yl]-5-cyclopropyl-pyrido[3,4-d]pyrimidin-4-yl}-(3,3-dimethyl-piperidin-4-yl)-methyl-amine]
< 100 nM	O[C@]12CCN(c3nc(-c4ccnc(Nc5ncn(Cc6ccccc6)n5)c4)nc4cncc(C5CC5)c34)[C@H]1CCNC2 (racemic) [Example 240, rac-(3aS,7aS)-1-{2-[2-(1-Benzyl-1H-1,2,4-triazol-3-ylamino)-pyridin-4-yl]-5-cyclopropyl-pyrido[3,4-d]pyrimidin-4-yl}-octahydro-pyrrolo[3,2-c]pyridin-3a-ol]
< 100 nM	C[C@@]1(O)CNCC[C@H]1Nc1nc(-c2ccnc3[nH]c4ccccc4c23)nc2cncc(C3CCC3)c12 (racemic) [Example 246]

Structure (SMILES)	IC50
CN(c1nc(-c2ccnc3[nH]c4ccccc4c23)nc2cncc(C3CC3)c12)[C@@H]1CCNC[C@@]1(C)O (racemic) [Example 114, (±)-(3,4-trans)-4-{[5-Cyclopropyl-2-(9H-pyrido[2,3-b]indol-4-yl)-pyrido[3,4-d]pyrimidin-4-yl]-methyl-amino}-3-methyl-piperidin-3-ol]	< 100 nM
